The results in this text go back to ChEMBL document CHEMBL5257044, “Arylnaphthalene Lignans with Anti-SARS-CoV-2 and Antiproliferative Activities from the Underground Organs of Linum austriacum and Linum perenne” (J Nat Prod, 2023).

A word on the IC50: it is the point on the concentration scale where inhibition reaches its midpoint.

Data set [1] concerns A549. Briefly: Cytotoxicity against human A549 cells incubated for 24 hrs by AlamarBlue staining based analysis. The format is functional, cell-based. The note with it: A549, 24 h.
In the next data set the test system is Calu-1. Kind of data set: Cytotoxicity against human Calu-1 cells incubated for 24 hrs by AlamarBlue staining based analysis. It counts as functional, cell-based. The following applies: Calu-1, 24 h. Background: Alamar Blue is a resazurin reagent that responds to reducing activity.
In a further data set the test system is EBC-1. Briefly: Cytotoxicity against human EBC-1 cells incubated for 24 hrs by AlamarBlue staining based analysis. It counts as functional, cell-based. The note with it: EBC-1, 24 h.
For another data set, the system named is NCI-H838. Briefly: Cytotoxicity against human NCI-H838 cells incubated for 24 hrs by AlamarBlue staining based analysis. The following applies: NCI-H838, 24 h. It counts as functional, cell-based.
A further data set concerns A2058. Kind of data set: Cytotoxicity against human A2058 cells incubated for 24 hrs by AlamarBlue staining based analysis. The note with it: A2058, 24 h. The format is functional, cell-based.
The next data set has as its system PC-3. Kind of data set: Cytotoxicity against human PC-3 cells incubated for 24 hrs by AlamarBlue staining based analysis. It counts as functional, cell-based. The following applies: PC-3, 24 h.
Another data set deals with HepG2. Kind of data set: Cytotoxicity against human HepG2 cells incubated for 24 hrs by AlamarBlue staining based analysis. The format is functional, cell-based. The note with it: HepG2, 24 h.
Data set [2] can be described thus: Cytotoxicity against human U87 cells incubated for 24 hrs by AlamarBlue staining based analysis. The format is functional, cell-based, U-87MG ATCC. The note with it: U-87 MG.
The subject of a further data set is HT-29. Kind of data set: Cytotoxicity against human HT-29 cells incubated for 24 hrs by AlamarBlue staining based analysis. It counts as functional, cell-based. The following applies: HT-29, 24 h.
The next data set deals with MONO-MAC-6. Briefly: Cytotoxicity against human MONO-MAC-6 cells incubated for 24 hrs by AlamarBlue staining based analysis. It counts as functional, cell-based. The following applies: MONO-MAC-6, 24 h.
In data set [3] the test system is SARS-CoV-2. Kind of data set: Antiviral activity against SARS-COV2 EPI_ISL_1172022 infected in african green monkey Vero E6 cells assessed as inhibition of viral replication incubated for 48 hrs by RT-qPCR analysis. The format is functional, organism-based. The following applies: Severe acute respiratory syndrome coronavirus 2, EPI_ISL_1172022, Vero C1008, 48 h.

The test system of data set [4] is SARS-CoV-2. Briefly: Antiviral activity against SARS-COV2 EPI_ISL_1172022 infected in african green monkey Vero E6 cells assessed as log reduction in viable virus at 12.5 uM incubated for 48 hrs by RT-qPCR analysis. It counts as functional, Severe acute respiratory syndrome coronavirus 2. On the technique in general: In qPCR the cycle at which signal appears reflects the starting amount.

A further data set concerns BGC-823. Kind of data set: Cytotoxicity against human BGC-823 cells assessed as reduction in cell viability measured after 4 days by MTT colorimetric assay. The format is functional, cell-based. The note with it: BGC-823, 96 h.
The next data set has as its system RPMI-8226. Briefly: Cytotoxicity against human RPMI-8226 cells assessed as reduction in cell viability measured after 72 hrs by MTT assay. It counts as functional, cell-based. The following applies: RPMI-8226, 72 h.
In data set [5] the test system is A549. Briefly: Cytotoxicity against human A549 cells measured after 3 days by MTT assay. It counts as functional, cell-based. The note with it: A549, 72 h. (In general: Formazan colour is commonly taken as a measure of viable cells.)
Data set [6] concerns A549. Briefly: Cytotoxicity against human A549 cells incubated for 24 hrs by MTS assay. The format is functional, cell-based. The following applies: A549, 24 h.
For data set [7], the system named is SARS-CoV-2. Kind of data set: Antiviral activity against SARS-COV2 infected in african green monkey Vero E6 cells assessed as inhibition of viral replication incubated for 48 hrs by plague assay. It counts as functional, organism-based. The note with it: Severe acute respiratory syndrome coronavirus 2, Vero C1008, 48 h.
Data set [8] in a line: Cytotoxicity against African green monkey Vero E6 cells incubated for 48 hrs by CCK-8 assay. It counts as toxicity, cell-based, Vero C1008. The note with it: African green monkey (Chlorocebus sabaeus).
The subject of another data set is TE-1. Briefly: Antiproliferative activity against human TE-1 cells measured after 2 days by CCK-8 method. The following applies: TE-1, 48 h. It counts as functional, cell-based.
Another data set has as its system ECa-109 cell line. Briefly: Antiproliferative activity against human Eca-109 cells measured after 2 days by CCK-8 method. The format is functional, cell-based. The note with it: ECa-109, 48 h.

`COc1cc2cc3c(c(-c4ccc5c(c4)OCO5)c2cc1OC)C(=O)OC3`: the IC50 with A549 [1] worked out at 11.4 µM; in the data set with Calu-1 it was 18.5 µM; with EBC-1, 63.2 µM; in the data set on NCI-H838 it was 11 µM; with A2058, 8.9 µM; in the data set on PC-3 it was 5.7 µM. For the same compound, the concentration for half-maximal inhibition (IC50) in the data set on HepG2 is 16.8 µM; in data set [2], 21.6 µM; with HT-29, 5.9 µM; with MONO-MAC-6, 2.5 µM; in the data set on SARS-CoV-2 [3], above 100 µM; with BGC-823 it was 0.18 µM. In addition, in the data set on RPMI-8226, the IC50 was 0.17 µM. The “log(activity)” value in the data set with SARS-CoV-2 [4] is above 3.

As for `COc1cc2cc(COC(=O)CC(=O)O)c(C(=O)O)c(-c3ccc4c(c3)OCO4)c2cc1OC`, the IC50 is above 100 µM in the data set on A549 [1]; above 100 µM in the data set on Calu-1; 16 µM in the data set on EBC-1; above 100 µM in the data set on NCI-H838; 25.1 µM in the data set on A2058; 32.8 µM in the data set with PC-3. In addition, the IC50 is above 100 µM in the data set on HepG2; above 100 µM in data set [2]; above 100 µM in the data set with HT-29; 70.1 µM with MONO-MAC-6; above 100 µM in the data set on SARS-CoV-2 [3].

With `COc1cc2cc(COC(=O)CC(=O)O)c(C(=O)O[C@@H]3O[C@H](COC(=O)CC(C)(O)CC(=O)O)[C@@H](O)[C@H](O)[C@H]3O)c(-c3ccc4c(c3)OCO4)c2cc1OC` (some centres not stated), the IC50 was found to be 26.3 µM in the data set on A549 [1]; 67 µM with Calu-1; 19.2 µM in the data set on EBC-1; 16 µM in the data set with NCI-H838; 2.4 µM with A2058; 3.2 µM in the data set with PC-3. Further, the IC50 is above 100 µM in the data set on HepG2; above 100 µM in [2]; 19.9 µM with HT-29; 7.1 µM in the data set with MONO-MAC-6; above 100 µM in the data set on SARS-CoV-2 [3].

As to `CCN(CC)CCCC(C)Nc1ccnc2cc(Cl)ccc12` (configuration not stated) [CHLOROQUINE], in the data set with SARS-CoV-2 [3], the 50% inhibitory concentration (IC50) was determined as 50.2 µM.

For the compound `COc1cc2c(O)c3c(c(-c4ccc5c(c4)OCO5)c2cc1OC)C(=O)OC3` [DIPHYLLIN], the half-inhibitory concentration (IC50) turned out to be 8.8 µM in the data set with A549 [1]; 31.8 µM in the data set on Calu-1; 14.8 µM in the data set with EBC-1; 16 µM in the data set with NCI-H838; 2.6 µM with A2058; 3.8 µM with PC-3. Further, the half-maximal inhibitory concentration (IC50) in the data set on HepG2 came to 21.6 µM; in [2] it was 26.1 µM; in the data set on HT-29, 19.5 µM; in the data set on MONO-MAC-6 it was 3.9 µM; in the data set on A549 [5], 24 µM; in the data set with A549 [6] it was 2.02 µM. For the same compound, the concentration for half-maximal inhibition (IC50) was above 100 µM in the data set with SARS-CoV-2 [3], 1.92 µM with SARS-CoV-2 [7], 0.28 µM in the data set on TE-1 and 0.21 µM in the data set on ECa-109 cell line. The same compound came in with an IC50 at 48 h in data set [8] above 100 µM. Moreover, the “log(activity)” value with SARS-CoV-2 [4] is recorded as above 3.

Regarding `COc1cc([C@@H]2c3cc4c(cc3[C@@H](O[C@@H]3O[C@@H]5CO[C@@H](C)O[C@H]5[C@H](O)[C@H]3O)[C@H]3COC(=O)[C@H]23)OCO4)cc(OC)c1O` [ETOPOSIDE], the IC50 is above 100 µM in the data set on A549 [1]; above 100 µM with Calu-1; 15.7 µM with EBC-1; above 100 µM with NCI-H838; 8.9 µM in the data set on A2058; 8 µM with PC-3. Further, the IC50 was determined as 20.9 µM in the data set with HepG2, 27 µM in data set [2], 18.5 µM in the data set with HT-29 and 2.2 µM in the data set with MONO-MAC-6.

For the compound `CC(C)C(=O)OC[C@H]1O[C@@H](n2cc/c(=N\O)[nH]c2=O)[C@H](O)[C@@H]1O` [MOLNUPIRAVIR], the 50% inhibitory concentration (IC50) in the data set on SARS-CoV-2 [3] is above 100 µM.

On to `CC(=O)Oc1ccccc1C(=O)Nc1ncc([N+](=O)[O-])s1` [NITAZOXANIDE], for which the 50% inhibitory concentration (IC50) in the data set on SARS-CoV-2 [3] worked out at 82.7 µM.
